Assays:
[1] = target: Collagenase 3 (Homo sapiens, UniProt P45452); assay: Inhibitory activity against matrix metallopeptidase 13
[2] = system: THP-1; assay: Percentage inhibition of TNF production in LPS-stimulated THP-1 cells; assay type: functional, Homo sapiens
[3] = target: T1, Interstitial collagenase (Homo sapiens, UniProt P03956); assay: Inhibitory activity against matrix metallopeptidase 1
T1 sequence (P03956 whole entry): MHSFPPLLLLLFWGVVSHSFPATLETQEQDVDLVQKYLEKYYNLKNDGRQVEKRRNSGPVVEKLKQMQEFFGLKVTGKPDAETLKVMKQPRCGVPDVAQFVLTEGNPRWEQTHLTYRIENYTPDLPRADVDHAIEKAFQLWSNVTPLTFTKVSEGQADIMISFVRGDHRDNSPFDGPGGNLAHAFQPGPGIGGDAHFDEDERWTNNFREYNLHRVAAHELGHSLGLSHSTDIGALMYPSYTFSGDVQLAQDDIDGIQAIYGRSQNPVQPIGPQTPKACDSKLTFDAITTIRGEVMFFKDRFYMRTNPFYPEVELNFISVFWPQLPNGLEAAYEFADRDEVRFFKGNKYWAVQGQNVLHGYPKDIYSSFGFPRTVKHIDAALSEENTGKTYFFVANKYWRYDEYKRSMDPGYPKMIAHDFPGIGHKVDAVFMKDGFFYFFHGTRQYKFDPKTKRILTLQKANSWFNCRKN

[4] = target: Disintegrin and metalloproteinase domain-containing protein 17 (Homo sapiens, UniProt P78536); assay: Inhibitory activity against TACE[ADAM metallopeptidase domain 17] in isolated enzyme assay
Disintegrin and metalloproteinase domain-containing protein 17, sequence (P78536 whole entry, the tested form may be a part): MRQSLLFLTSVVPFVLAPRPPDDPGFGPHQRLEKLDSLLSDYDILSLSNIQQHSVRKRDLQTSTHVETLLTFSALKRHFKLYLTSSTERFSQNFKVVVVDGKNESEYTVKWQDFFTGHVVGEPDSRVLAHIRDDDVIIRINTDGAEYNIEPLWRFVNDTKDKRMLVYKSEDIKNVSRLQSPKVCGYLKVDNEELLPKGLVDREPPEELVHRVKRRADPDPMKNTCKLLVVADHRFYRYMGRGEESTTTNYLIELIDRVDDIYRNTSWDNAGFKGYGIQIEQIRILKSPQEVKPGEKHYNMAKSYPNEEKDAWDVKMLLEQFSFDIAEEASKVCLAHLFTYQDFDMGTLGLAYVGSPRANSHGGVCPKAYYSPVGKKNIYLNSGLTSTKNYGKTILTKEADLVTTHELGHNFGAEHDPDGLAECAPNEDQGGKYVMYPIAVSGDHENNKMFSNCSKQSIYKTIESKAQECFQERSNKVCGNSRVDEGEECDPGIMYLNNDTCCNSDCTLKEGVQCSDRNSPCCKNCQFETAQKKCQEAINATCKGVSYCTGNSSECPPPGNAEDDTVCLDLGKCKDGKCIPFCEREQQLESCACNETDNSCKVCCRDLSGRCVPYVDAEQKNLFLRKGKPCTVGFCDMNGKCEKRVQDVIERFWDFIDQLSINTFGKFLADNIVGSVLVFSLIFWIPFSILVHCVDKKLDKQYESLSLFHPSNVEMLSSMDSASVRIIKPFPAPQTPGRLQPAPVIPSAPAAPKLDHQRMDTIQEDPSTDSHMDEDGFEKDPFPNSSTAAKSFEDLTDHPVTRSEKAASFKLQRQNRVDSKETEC

| IC50 [1] | IC50 [4] | Structure (SMILES) | other results |
| --- | --- | --- | --- |
| 8 nM |  | CC#CCOc1ccc(S(=O)(=O)N2CCNCC2C(=O)NO)cc1 (configuration not stated) | Inhibition [2]: 71% |
|  |  | CC#CCOc1ccc(S(=O)(=O)N2CCSC(C)(C)C2C(=O)NO)cc1 (configuration not stated) | IC50 [3]: 7 nM |
| 9 nM |  | CC#CCOc1ccc(S(=O)(=O)N2CCN(C(=O)OC)CC2C(=O)NO)cc1 (configuration not stated) |  |
| 6 nM |  | CC#CCOc1ccc(S(=O)(=O)N2CCN(S(C)(=O)=O)CC2C(=O)NO)cc1 (configuration not stated) |  |
|  | 5 nM | CC#CCOc1ccc(S(=O)(=O)N2CCOCC2C(=O)NO)cc1 (configuration not stated) |  |
|  | 3 nM | CC#CCOc1ccc(S(=O)(=O)N2CCSCC2C(=O)NO)cc1 (configuration not stated) |  |
